Data as given in US9474790B2, “Stable, protracted GLP-1/glucagon receptor co-agonists for medical use” (Novo Nordisk A/S, priority 2013, dated 2016).
Numbered stars: 1 amine (or outer) side, 2 acyl side, 3 side chain; on linkers, the order of the positions; unused ones are H or OH. Bridge positions count the residues as written; N and C are the ends. Square brackets hold non-standard residues; d marks the D form. Side chains are listed from the residue outwards. Peptide text beside a SMILES is read from it. I, II: the chains in the order shown. * marks the point of attachment. C18 diacid = O=C(O)CCCCCCCCCCCCCCCCC(=O)*; γGlu = O=C(O)[C@H](CCC(=O)[*:2])N[*:1]; Ac4c = NC1(C(=O)O)CCC1; AEEA = NCCOCCOCC(=O)O; Aib = CC(C)(N)C(=O)O

Target: T1, human glucagon receptor (Homo sapiens, UniProt P47871)
T1 construct: expressed in transfected cells; host or cells: BHK cells (parent BHK570, CRE luciferase clone BHK/KZ10-20-48), clone pLJ6'-4-25
Test: Glucagon receptor binding, 125I-glucagon displacement SPA on isolated membranes
Settings: displacement of 125I-glucagon from membranes; read-out: IC50 GlucR
Method: The purpose of this assay was to test the in vitro receptor binding activity (i.e. affinity) of the glucagon derivatives of the invention. The receptor binding activity is a measure of affinity of a derivative for the human glucagon receptor.
The receptor binding of each compound to the human glucagon receptor was measured in a displacement binding assay. In this type of assay a labelled ligand (in this case 125I-glucagon) is bound to the receptor. Each derivative was added in a series of concentrations to isolated membranes containing the human glucagon receptor and displacement of the labelled ligand is monitored. The receptor binding was reported as the concentration at which half of the labelled ligand is displaced from the receptor, the IC50 value.
In order to test the binding of the derivatives to albumin, the assay may be performed in a very low concentration of serum albumin (max. 0.001% final assay concentration) as well as in the presence of a higher concentration of serum albumin (0.2% final assay concentration). An increase of the IC50 value, in the presence of serum albumin indicates an affinity to serum albumin and represents a method to predict a protracted pharmacokinetic profile of the test substance in animal models.
The following chemicals were used in the assay: DMEM w Glutamax (Gibco 61965-026), Pen/strep (Invitrogen 15140-122), G418 (Invitrogen 10131-027), Versene (Gibco 15040), 1 M Hepes (Gibco 15630), PBS (Invitrogen 14190-094), fetal calf serum (Invitrogen 16140-071), MgCl2 (Merck 1.05832.1000), EDTA (Invitrogen 15575-038), CaCl2 (Sigma, C5080), Tween 20 (Amresco 0850C335), ovalbumin (Sigma A5503), SPA particles (wheat germ agglutinin (WGA) SPA beads, Perkin Elmer RPNQ0001), [125I]-glucagon (produced in-house), OptiPlate™-96 (Packard 6005290).
HME buffer consisted of 25 mM HEPES, 2 mM MgCl2 and 1 mM EDTA, and pH was adjusted to 7.4. Assay buffer consisted of 50 mM HEPES supplemented with 5 mM MgCl2, 1 mM CaCl2, 0.02% Tween 20 and 0.1% Ovalbumin, and pH was adjusted to 7.4.
The cells used in this assay (clone BHK hGCGR A3*25) were BHK cells stable transfected with an expression plasmid containing the cDNA encoding the human glucagon receptor.
The cells were grown at 5% CO2 in DMEM, 10% fetal calf serum, 1% Pen/Strep (Penicillin/Streptomycin) and 1.0 mg/ml of the selection marker G418. To make a membrane preparation the cells were grown to approximately 80% confluence. The cells were washed twice in phosphate-buffered saline and harvested. The cells were pelleted using a brief centrifugation and the cell pellet was kept on ice. Lyse the cells by adding approx. 5 ml HME buffer, mix by pipetting and snap freeze in liquid nitrogen. Thaw quickly and add HME buffer to 10 ml. The cell pellet was homogenised with an ULTRA-THURRAX dispersing instrument for 20-30 sec. The homogenate was centrifuged at 20.000×G, 4° C. for 10 min. The pellet was re-suspended (homogenised) in 1-2 ml HME buffer. The protein concentration was determined. The membranes were aliquoted and snap-frozen in liquid nitrogen and stored at minus 80° C.
1. For the receptor binding assay, 50 μl of the assay buffer was added to each well of an assay plate.
2. Test compounds were serially diluted to give the following concentrations: 8×10EE-7 M, 8×10EE-8 M, 8×10EE-9 M, 8×10EE-10 M, 8×10EE-11 M, 8×10EE-12 M and 8×10EE-13 M. Twenty-five μl were added to appropriate wells in the assay plate.
3. Cell membrane aliquots were thawed and diluted to their working concentration. Fifty μl were added to each well in the assay plate.
4. WGA SPA beads were suspended in assay buffer at 20 mg/ml. The suspension was diluted to 10 mg/ml in assay buffer just prior to addition to the assay plate. Fifty μl were added to each well in the assay plate.
5. The incubation was started by adding 25 μl of 480 pM solution of [125I]-glucagon to each well of the assay plate. A 25 μl aliquot was reserved for measuring total counts/well.
6. The assay plate was incubated for 2 h at 25° C.
7. […]

T1 sequence (P47871 26-477): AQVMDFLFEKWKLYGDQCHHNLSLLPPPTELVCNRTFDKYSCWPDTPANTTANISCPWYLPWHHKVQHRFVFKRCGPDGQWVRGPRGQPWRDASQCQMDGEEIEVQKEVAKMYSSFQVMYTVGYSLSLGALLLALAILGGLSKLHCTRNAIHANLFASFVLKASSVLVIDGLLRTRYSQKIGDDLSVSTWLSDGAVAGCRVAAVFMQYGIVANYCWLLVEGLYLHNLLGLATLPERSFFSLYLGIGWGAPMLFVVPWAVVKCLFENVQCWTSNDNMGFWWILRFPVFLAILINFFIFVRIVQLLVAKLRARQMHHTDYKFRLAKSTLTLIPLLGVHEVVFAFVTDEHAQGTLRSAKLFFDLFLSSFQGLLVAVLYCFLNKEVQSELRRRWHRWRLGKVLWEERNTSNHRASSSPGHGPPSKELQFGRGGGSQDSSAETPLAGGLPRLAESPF

| IC50 [nM] | Compound |
| --- | --- |
| 1.8 | CC(C)C[C@H](NC(=O)[C@H](Cc1ccc(O)cc1)NC(=O)[C@H](CCCCN)NC(=O)[C@H](CO)NC(=O)[C@H](CC(C)C)NC(=O)[C@H](CC(=O)O)NC(=O)[C@H](CO)NC(=O)[C@@H](NC(=O)[C@H](Cc1ccccc1)NC(=O)[C@@H](NC(=O)CNC(=O)[C@H](CCC(N)=O)NC(=O)C1(NC(=O)[C@@H](N)Cc2c[nH]cn2)CCC1)[C@@H](C)O)[C@@H](C)O)C(=O)N[C@@H](CCC(=O)O)C(=O)N[C@@H](CO)C(=O)N[C@@H](CCCNC(=N)N)C(=O)N[C@@H](CCCNC(=N)N)C(=O)N[C@@H](C)C(=O)N[C@@H](CCCNC(=N)N)C(=O)N[C@@H](CCC(=O)O)C(=O)N[C@@H](Cc1ccccc1)C(=O)N[C@H](C(=O)N[C@@H](CCC(N)=O)C(=O)N[C@@H](Cc1c[nH]c2ccccc12)C(=O)N[C@@H](CC(C)C)C(=O)N[C@@H](CC(C)C)C(=O)N[C@@H](CCCCNC(=O)CC[C@H](NC(=O)CC[C@H](NC(=O)COCCOCCNC(=O)COCCOCCNC(=O)CC[C@H](NC(=O)CC[C@H](NC(=O)CCCCCCCCCCCCCCCCC(=O)O)C(=O)O)C(=O)O)C(=O)O)C(=O)O)C(=O)N[C@H](C(N)=O)[C@@H](C)O)C(C)C [Example 61, N^ε28-[(4S)-4-carboxy-4-[[(4S)-4-carboxy-4-[[2-[2-[2-[[2-[2-[2-[[(4S)-4-carboxy-4-[[(4S)-4-carboxy-4-(17-carboxyheptadecanoylamino)butanoyl]amino]butanoyl]amino]ethoxy]ethoxy]acetyl]amino]ethoxy]ethoxy]acetyl]amino]butanoyl]amino]butanoyl]-[Acb2,Leu10,Glu15,Arg20,Glu21,Leu27,Lys28]-Glucagon amide] (H-H[Ac4c]QGTFTSDLSKYLESRRAREFVQWLLK([γGlu-γGlu-AEEA-AEEA-γGlu-γGlu-C18 diacid])T-NH2; N-terminus assumed) |
| 2 | CC(C)C[C@H](NC(=O)[C@H](Cc1ccc(O)cc1)NC(=O)[C@H](CCCCN)NC(=O)[C@H](CO)NC(=O)[C@H](CC(C)C)NC(=O)[C@H](CC(=O)O)NC(=O)[C@H](CO)NC(=O)[C@@H](NC(=O)[C@H](Cc1ccccc1)NC(=O)[C@@H](NC(=O)CNC(=O)[C@H](Cc1c[nH]cn1)NC(=O)C(C)(C)NC(=O)[C@@H](N)Cc1c[nH]cn1)[C@@H](C)O)[C@@H](C)O)C(=O)N[C@@H](CCC(=O)O)C(=O)N[C@@H](CO)C(=O)N[C@@H](CCCNC(=N)N)C(=O)N[C@@H](CCCNC(=N)N)C(=O)N[C@@H](C)C(=O)N[C@@H](CCCNC(=N)N)C(=O)N[C@@H](CCC(=O)O)C(=O)N[C@@H](Cc1ccccc1)C(=O)N[C@H](C(=O)N[C@@H](CCC(N)=O)C(=O)N[C@@H](Cc1c[nH]c2ccccc12)C(=O)N[C@@H](CC(C)C)C(=O)N[C@@H](CC(C)C)C(=O)N[C@@H](CCCCNC(=O)CC[C@H](NC(=O)CC[C@H](NC(=O)COCCOCCNC(=O)COCCOCCNC(=O)CC[C@H](NC(=O)CCCCCCCCCCCCCCCCC(=O)O)C(=O)O)C(=O)O)C(=O)O)C(=O)N[C@H](C(N)=O)[C@@H](C)O)C(C)C [Example 33, N^ε28-[(4S)-4-carboxy-4-[[(4S)-4-carboxy-4-[[2-[2-[2-[[2-[2-[2-[[(4S)-4-carboxy-4-(17-carboxyheptadecanoylamino)butanoyl]amino]ethoxy]ethoxy]acetyl]amino]ethoxy]ethoxy]acetyl]amino]butanoyl]amino]butanoyl]-[Aib2,His3,Leu10,Glu15,Arg20,Glu21,Leu27,Lys28]-Glucagon amide] (H-H[Aib]HGTFTSDLSKYLESRRAREFVQWLLK([γGlu-γGlu-AEEA-AEEA-γGlu-C18 diacid])T-NH2; N-terminus assumed) |
| 3.9 | CC(C)C[C@H](NC(=O)[C@H](Cc1ccc(O)cc1)NC(=O)[C@H](CCCNC(=N)N)NC(=O)[C@H](CO)NC(=O)[C@H](CC(C)C)NC(=O)[C@H](CC(=O)O)NC(=O)[C@H](CO)NC(=O)[C@@H](NC(=O)[C@H](Cc1ccccc1)NC(=O)[C@@H](NC(=O)CNC(=O)[C@H](CCC(N)=O)NC(=O)C(C)(C)NC(=O)[C@@H](N)Cc1c[nH]cn1)[C@@H](C)O)[C@@H](C)O)C(=O)N[C@@H](CC(=O)O)C(=O)N[C@@H](C)C(=O)N[C@@H](CCCNC(=N)N)C(=O)N[C@@H](CCCNC(=N)N)C(=O)N[C@@H](C)C(=O)N[C@@H](CCCNC(=N)N)C(=O)N[C@@H](CC(=O)O)C(=O)N[C@@H](Cc1ccccc1)C(=O)N[C@H](C(=O)N[C@@H](CCC(N)=O)C(=O)N[C@@H](Cc1c[nH]c2ccccc12)C(=O)N[C@@H](CC(C)C)C(=O)N[C@@H](CC(C)C)C(=O)N[C@@H](CCCCNC(=O)CC[C@H](NC(=O)CC[C@H](NC(=O)CC[C@H](NC(=O)CCCCCCCCCCCCCCCCC(=O)O)C(=O)O)C(=O)O)C(=O)O)C(=O)N[C@H](C(N)=O)[C@@H](C)O)C(C)C [Example 62, N^ε28-[(4S)-4-carboxy-4-[[(4S)-4-carboxy-4-[[(4S)-4-carboxy-4-(17-carboxyheptadecanoylamino)butanoyl]amino]butanoyl]amino]butanoyl]-[Aib2,Leu10,Arg12,Ala16,Arg20,Leu27,Lys28]-Glucagon amide] (H-H[Aib]QGTFTSDLSRYLDARRARDFVQWLLK([γGlu-γGlu-γGlu-C18 diacid])T-NH2; N-terminus assumed) |
| 0.7 | CC(C)C[C@H](NC(=O)[C@H](Cc1ccc(O)cc1)NC(=O)[C@H](CCCCN)NC(=O)[C@H](CO)NC(=O)[C@H](CC(C)C)NC(=O)[C@H](CC(=O)O)NC(=O)[C@H](CO)NC(=O)[C@@H](NC(=O)[C@H](Cc1ccccc1)NC(=O)[C@@H](NC(=O)CNC(=O)[C@H](Cc1c[nH]cn1)NC(=O)C1(NC(=O)[C@@H](N)Cc2c[nH]cn2)CCC1)[C@@H](C)O)[C@@H](C)O)C(=O)N[C@@H](CCC(=O)O)C(=O)N[C@@H](CO)C(=O)N[C@@H](CCCNC(=N)N)C(=O)N[C@@H](CCCNC(=N)N)C(=O)N[C@@H](C)C(=O)N[C@@H](CCC(N)=O)C(=O)N[C@@H](CC(=O)O)C(=O)N[C@@H](Cc1ccccc1)C(=O)N[C@H](C(=O)N[C@@H](CCC(N)=O)C(=O)N[C@@H](Cc1c[nH]c2ccccc12)C(=O)N[C@@H](CC(C)C)C(=O)N[C@@H](CC(C)C)C(=O)N[C@@H](CCCCNC(=O)CNC(=O)[C@H](CO)NC(=O)[C@H](CCC(=O)O)NC(=O)CNC(=O)[C@H](CO)NC(=O)CC[C@H](NC(=O)CC[C@H](NC(=O)CCCCCCCCCCCCCCCCC(=O)O)C(=O)O)C(=O)O)C(=O)N[C@H](C(N)=O)[C@@H](C)O)C(C)C [Example 35, N^ε28-[2-[[(2S)-2-[[(2S)-4-carboxy-2-[[2-[[(2S)-2-[[(4S)-4-carboxy-4-[[(4S)-4-carboxy-4-(17-carboxyheptadecanoylamino)butanoyl]amino]butanoyl]amino]-3-hydroxypropanoyl]amino]acetyl]amino]butanoyl]amino]-3-hydroxypropanoyl]amino]acetyl]-[Acb2,His3,Leu10,Glu15, Leu27,Lys28]-Glucagon amide] (I: H-H[Ac4c]HGTFTSDLSKYLESRRAQDFVQWLLKT-NH2 / II: {C18 diacid-γGlu-γGlu}-SGESG; amide I:28-II:C; N-terminus assumed) |
